{"source": "paper PMC4821601", "about": "“The Interactions of P-Glycoprotein with Antimalarial Drugs, Including Substrate Affinity, Inhibition and Regulation” (PLoS ONE, 2016)", "key": {"P-gp": {"test_system": "P-gp", "conditions": "20 μM, 96 hours, Caco-2, western blot vs control", "description": "Caco-2 cells were seeded in 6 well plates at 10,000 cells/cm^2 for 21 days. Drugs and drug combinations at 20 μM prepared in cell growth medium were added on to the mature cells and exposed for 96 hours. After drug exposure, cells were washed three times using PBS and cell lysate was prepared in lysis buffer. The protein content was quantified using the 96 well micro-Lowry protein assay and regulation of P-gp was determined using western blotting.\nThe membrane was blocked using 2% casein in TBS and washed with TBST. The primary antibody; Mdr (G-1) mouse monoclonal IgG2b 200 and mouse anti-β actin were used as the antibody for β-actin, the reference protein. The antibody; HRP linked goat anti mouse IgG was used as the secondary antibody. The washed membrane was incubated in a BioRad clarity chemiluminescent substrate and enhancer was read and semi quantified using the BIORAD Chemidoc MPT imager with Image LabTM software."}, "P-glycoprotein (P-gp)": {"target": "T1, P-glycoprotein (P-gp) (Homo sapiens, UniProt P08183)", "T1 construct": "In-vitro Caco-2 cell monolayers were used here as a model for potential drug absorption related problems and P-gp mediated transport of drugs; endogenous in cells; host or cells: Caco-2 (human colon carcinoma, ATCC)", "T1 sequence (P08183 whole entry)": "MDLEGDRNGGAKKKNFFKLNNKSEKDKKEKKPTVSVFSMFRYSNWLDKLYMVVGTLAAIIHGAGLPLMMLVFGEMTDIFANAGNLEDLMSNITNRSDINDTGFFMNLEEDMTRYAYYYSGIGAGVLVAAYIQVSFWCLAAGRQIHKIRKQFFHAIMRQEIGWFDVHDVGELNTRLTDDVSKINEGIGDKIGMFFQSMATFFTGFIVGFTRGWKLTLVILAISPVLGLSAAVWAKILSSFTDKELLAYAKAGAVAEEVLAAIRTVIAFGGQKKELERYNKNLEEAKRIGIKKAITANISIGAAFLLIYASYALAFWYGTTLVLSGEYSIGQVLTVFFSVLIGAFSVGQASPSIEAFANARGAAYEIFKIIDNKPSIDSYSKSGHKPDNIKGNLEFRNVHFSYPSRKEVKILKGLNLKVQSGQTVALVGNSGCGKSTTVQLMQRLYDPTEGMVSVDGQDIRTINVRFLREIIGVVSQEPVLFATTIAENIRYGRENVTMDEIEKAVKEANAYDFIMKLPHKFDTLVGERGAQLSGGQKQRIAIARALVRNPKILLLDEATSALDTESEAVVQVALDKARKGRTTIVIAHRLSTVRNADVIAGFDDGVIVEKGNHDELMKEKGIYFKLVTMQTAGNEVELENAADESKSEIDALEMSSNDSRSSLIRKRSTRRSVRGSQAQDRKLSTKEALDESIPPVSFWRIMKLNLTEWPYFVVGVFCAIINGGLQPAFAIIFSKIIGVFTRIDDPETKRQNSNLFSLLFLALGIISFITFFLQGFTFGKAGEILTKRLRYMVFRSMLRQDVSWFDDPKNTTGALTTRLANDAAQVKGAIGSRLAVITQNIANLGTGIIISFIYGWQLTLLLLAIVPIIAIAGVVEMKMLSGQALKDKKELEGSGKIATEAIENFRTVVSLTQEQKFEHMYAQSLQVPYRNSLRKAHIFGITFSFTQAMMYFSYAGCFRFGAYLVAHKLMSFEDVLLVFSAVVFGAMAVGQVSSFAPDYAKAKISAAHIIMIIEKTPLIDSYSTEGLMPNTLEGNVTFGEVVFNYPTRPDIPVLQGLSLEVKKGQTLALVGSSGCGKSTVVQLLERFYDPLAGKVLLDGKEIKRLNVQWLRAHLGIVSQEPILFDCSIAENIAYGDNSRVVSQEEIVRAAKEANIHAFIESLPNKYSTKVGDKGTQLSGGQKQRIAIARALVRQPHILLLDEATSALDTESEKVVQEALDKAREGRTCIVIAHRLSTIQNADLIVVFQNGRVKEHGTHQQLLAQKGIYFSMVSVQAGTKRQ", "test": "Bidirectional transport of rhodamine123 through Caco-2 monolayers co-incubated with antimalarials (P-gp inhibitory properties)", "assay_type": "in vitro ADME", "conditions": "at 100 μM", "description": "The Caco-2 cells were seeded on 0.6 cm^2 […] Millipore PCF™ filter inserts at the cell density of 65,000 cells/cm^2 as done previously in the lab. Briefly, the cells were grown for 21–24 days to allow full maturation and formation of tight monolayers. The initial experiments were conducted in mid-40s passage cells and repeated in early 80s passage Caco-2 cells. The Trans epithelial electrical resistance (TEER) was measured immediately before and after the experiment using an epithelial voltage/ohm meter and an ENDOHM 12 chamber (World precision instruments, Sarasota, FL). TEER values were measured both before and after the study with readings above 300 Ω.cm^2 considered as acceptable for tight junctions. […] In order to maintain equivalent transport medium (HBSS/HBSS with inhibitor) level both outside and inside the chambers, 300 μL was used as medium in the apical chambers and 600 μL in the basolateral chambers. […] Drugs were co-incubated with MRCP, BCRP and ATP hydrolysis blockers to determine the involvement of other efflux mechanisms. Prior to the experiment, the transport medium, HBSS or HBSS with P-gp inhibitors were pre-incubated with the cells for 30 minutes. Following incubation, inserts were placed in new well plates and donor chamber is replaced with drug or drug with inhibitor and the receiver chamber with blank HBSS or HBSS with inhibitor. Transport medium was collected from the receiver chamber after stirring at time intervals of 30, 60, 90 and 120 minutes and was replaced with the same volume of fresh HBSS, or HBSS with inhibitor, when P-gp inhibitors were used in the study. At the end of the experiment 100 μL of medium was removed from the donor chamber in addition to medium collected from the receiver chamber during the study. The cells were then washed thoroughly in cold (4°C) PBS and cell membranes attached to the inserts were sonicated for 10 minutes in a sonicating water bath and centrifuged at 10,000 g for 10 minutes. Supernatant was frozen at -80°C until assayed. The Papp values of three well plates were determined using methods modified from Artursson’s group as described by Crowe and Lemaire.\nCL.vol=Aa/{[Cd0×Vd−[Aa+(Ca×Vs)]−(Ac)×n/nfin]/Vd}\nCL.vol = clearance volume (mL), n = time (min), Aa = amount in acceptor compartment at time n (pmols), Cd0 = concentration in donor compartment at time zero (nM), Vd = volume of the donor compartment (mL), Ca = concentration in acceptor compartment at the previous time point (nM), Vs = sample volume of previous time point (mL), Ac = amount of compound associated with the cells (pmol), Nfin = final time point (min). Papp = Apparent permeability (cm/sec) Rate of clearance (mL/min)=CL.vol / n Papp (cm/sec)=Rate of clearance / Surface area (cm^2)\nThe cleared volume was plotted against time and the slope of the regression line was divided by the surface area to obtain the Papp values. […] Mean Papp for Bas-Ap direction was divided by the Ap-Bas direction to obtain the efflux ratio and values above two were considered as drugs having true efflux transport."}}, "data": [{"compound": "OC(c1cc(C(F)(F)F)nc2c(C(F)(F)F)cccc12)C1CCCCN1", "note": "(stereo not drawn) [MQ, mefloquine]", "values": [{"measurement": "regulation of P-gp expression", "setting": "P-gp", "value": "not observed"}, {"measurement": "P-gp inhibitory properties", "setting": "P-glycoprotein (P-gp)", "value": "P-gp inhibitory properties"}, {"measurement": "inhibition at 120 min, 100 µM", "setting": "P-glycoprotein (P-gp); human, Caco-2 cell monolayers, probe rhodamine 123, read-out: inhibition of efflux driven transport", "value": "~50", "unit": "%"}]}]}
